Tests used:
MPK6 [1] = biological target: T1, MPK6 (Arabidopsis thaliana, UniProt Q39026); assay: biochemical; parameters: isothermal titration calorimetry, 25 °C, PBS pH 7.4, 2% DMSO
T1 construct: MPK6ΔNt (29 to 305)

MPK6 [2] = biological target: T1, MPK6; assay: biochemical; parameters: biolayer interferometry (Octet Red96), GST-tagged protein on probe, 25 °C, 1:1 model; details: read-out: kon (M^-1s^-1)
MPK6 [3] = biological target: T1, MPK6; assay: biochemical; parameters: biolayer interferometry (Octet Red96), GST-tagged protein on probe, 25 °C, 1:1 model; details: read-out: koff (s^-1)
MPK6 [4] = biological target: T1, MPK6; assay: BLI and ITC with recombinant MPK6; also in vitro kinase inhibition; format: binding
[5] = biological target: CA-MPK6 (constitutively active MPK6) (Arabidopsis thaliana, UniProt Q39026, D218G/E222A); assay: biochemical; format: binding
CA-MPK6 (constitutively active MPK6), sequence (Q39026 29-305 D218G/E222A limits assumed): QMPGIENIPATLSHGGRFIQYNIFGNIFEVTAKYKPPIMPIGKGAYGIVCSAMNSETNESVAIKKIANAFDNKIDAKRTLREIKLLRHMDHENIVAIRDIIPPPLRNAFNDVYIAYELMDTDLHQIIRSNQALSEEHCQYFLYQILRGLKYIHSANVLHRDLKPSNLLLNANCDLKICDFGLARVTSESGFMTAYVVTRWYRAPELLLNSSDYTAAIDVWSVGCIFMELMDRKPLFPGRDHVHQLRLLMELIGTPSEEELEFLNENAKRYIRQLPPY

T1 sequence (Q39026 29-305): as the sequence (Q39026 29-305 D218G/E222A limits assumed) above, with G190D, A194E counted along it

SMILES | Kd (MPK6 [1]) | kon (MPK6 [2]) | koff (MPK6 [3]) | Kd (MPK6 [4]) | Kd [5]
Nc1ncnc2c1ncn2[C@@H]1O[C@H](COP(=O)(O)OP(=O)(O)OP(=O)(O)O)[C@@H](O)[C@H]1O [ATP] | 1.2 ± 0.3 µM | 8920 M⁻¹ s⁻¹ | 0.0125 s⁻¹ |  | 
O=P(O)(O)C(O)c1ccc2ccccc2c1 (stereo not shown) [compound 2, hydroxy-2-naphthalenymethylphosphonic acid] |  | 3020 M⁻¹ s⁻¹ | 0.0175 s⁻¹ | 4.9 ± 0.6 µM | 58 ± 13 µM

From article PMC11797554, “Chemical genetics reveals cross-regulation of plant developmental signaling by the immune peptide-receptor pathway” (Science Advances, 2024)
